# In patent US20230085307A1, “PYRIDAZINONE COMPOUND AND HERBICIDE” (NISSAN CHEMICAL CORPORATION, priority 2019, published 2023):
# Key:
# Japanese bulrush = experiment: Test Example 1: herbicidal activity, application before weed generation under submerged conditions (Table 16, symbol B); type: in vivo, Japanese bulrush (Schoenoplectus juncoides)
# How it was run: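 Submerged Wagner pots (alluvial soil, 4 cm water) sown with weed seeds and planted with 2.5-leaf rice seedlings; emulsifiable concentrate diluted in water applied to water surface on sowing day. Held in greenhouse at 25-30 °C; injury scored 0-5 by herbicidal rate after three weeks.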
# blackgrass = experiment: Test Example 4: herbicidal effect by soil treatment (Table 19, symbol J); type: in vivo, blackgrass (Alopecurus myosuroides)
# How it was run: (§1)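 Soil-surface application: an emulsion agent diluted with water to the predetermined dose is sprayed uniformly over seeds lying under roughly 1.5 cm of sterilized diluvial soil. Boxes stay in a greenhouse at 25° C. to 30° C. Three weeks later, each species is graded on previously defined criteria.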
# windgrass = experiment: Test Example 4: herbicidal effect by soil treatment (Table 19, symbol L); type: in vivo, windgrass (Apera spica-venti)
# How it was run: as §1
# Italian ryegrass [1] = experiment: Test Example 5: herbicidal effect by foliage application, plastic box (Table 20, symbol K); type: in vivo, Italian ryegrass (Lolium multiflorum); details: foliage application, 3 weeks after application
# How it was run: (§2)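 Sow seeds spot-wise in sterilized diluvial soil; cover with ~1.5 cm soil. Grow 14 days in greenhouse, 25° C. to 30° C. Spray foliage with emulsion diluted to predetermined amount. Rate effect after 3 weeks.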
# lambsquarters [2] = experiment: Test Example 4: herbicidal effect by soil treatment (Table 19, symbol O); type: in vivo, lambsquarters (Chenopodium album)
# How it was run: as §1
# southern crabgrass = experiment: Test Example 4: herbicidal effect by soil treatment (Table 19, symbol F); type: in vivo, southern crabgrass (Digitaria ciliaris)
# How it was run: as §1
# green foxtail = experiment: Test Example 5: herbicidal effect by foliage application, plastic box (Table 20, symbol G); type: in vivo, green foxtail (Setaria viridis); details: foliage application, 3 weeks after application
# How it was run: as §2
# late watergrass = experiment: Test Example 2: herbicidal activity, application during weed generation under submerged conditions (Table 17, symbol A); type: in vivo, late watergrass (Echinochloa oryzicola); details: application during weed generation, submerged conditions
# How it was run: (§3)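 3-wk visual-criteria score after one water-surface dose. Emulsion formulation, water-diluted to set rate; applied at 1–2 leaf stage; alluvial soil, 4 cm standing water; seeds co-sown; greenhouse 25–30° C.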
# oval-leafed pondweed = experiment: Test Example 2: herbicidal activity, application during weed generation under submerged conditions (Table 17, symbol C); type: in vivo, oval-leafed pondweed (Monochoria vaginalis); details: application during weed generation, submerged conditions
# How it was run: as §3
# lambsquarters [3] = experiment: Test Example 5: herbicidal effect by foliage application, plastic box (Table 20, symbol O); type: in vivo, lambsquarters (Chenopodium album); details: foliage application, 3 weeks after application
# How it was run: as §2
# velvetleaf = experiment: Test Example 5: herbicidal effect by foliage application, plastic box (Table 20, symbol M); type: in vivo, velvetleaf (Abutilon theophrasti); details: foliage application, 3 weeks after application
# How it was run: as §2
# Italian ryegrass [4] = experiment: Test Example 4: herbicidal effect by soil treatment (Table 19, symbol K); type: in vivo, Italian ryegrass (Lolium multiflorum)
# How it was run: as §1
# Chinese sprangletop = experiment: Test Example 3: herbicidal effect by foliage application, Wagner pot (Table 18, symbol D); type: in vivo, chinese sprangletop (Leptochloa chinensis)
# How it was run: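 Plants were sown in alluvial soil held under 0.1–0.5 cm standing water and grown 14 days in a greenhouse at 25–30 °C. An emulsifiable formulation, water-diluted to the set dose, was then sprayed onto the foliage, and effects were scored three weeks later using previously defined criteria.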
# wild oat = experiment: Test Example 4: herbicidal effect by soil treatment (Table 19, symbol I); type: in vivo, wild oat (Avena fatua)
# How it was run: as §1
SMILES,Herbicidal effect on B: Japanese bulrush (grade 0-5) (Japanese bulrush; 320 g/ha applied herbicide),"J: blackgrass, herbicidal effect rating (blackgrass; AAH 320 g/ha)","L: windgrass, herbicidal effect rating (windgrass; AAH 320 g/ha)",effect on Italian ryegrass (K) (Italian ryegrass [1]; 320 g/ha),"O: lambsquarters, herbicidal effect rating (lambsquarters [2]; AAH 320 g/ha)","F: southern crabgrass, herbicidal effect rating (southern crabgrass; AAH 320 g/ha)",effect on green foxtail (G) (green foxtail; 320 g/ha),"herbicidal effect rating, A: late watergrass (late watergrass; AAH 320 g/ha)","herbicidal effect rating, C: oval-leafed pondweed (oval-leafed pondweed; AAH 320 g/ha)",effect on lambsquarters (O) (lambsquarters [3]; 320 g/ha),effect on velvetleaf (M) (velvetleaf; 320 g/ha),"K: Italian ryegrass, herbicidal effect rating (Italian ryegrass [4]; AAH 320 g/ha)","herbicidal effect on D (Chinese sprangletop), rating 0-5 (Chinese sprangletop; 320 g/ha)","I: wild oat, herbicidal effect rating (wild oat; AAH 320 g/ha)",also measured
C=CCC(C)Oc1ccc(-c2sc3ccccc3c2-c2c(O)c(C)nn(C)c2=O)cc1 (racemic) [1-213],5 (Herbicidal rate of 90% or more (almost completely withered)),1 (Herbicidal rate of 5% or more and less than 20%),2 (Herbicidal rate of 20% or more and less than 40%),4 (Herbicidal rate of 70% or more and less than 90%),0 (Herbicidal rate of 5% or less (almost no effect)),0 (Herbicidal rate of 5% or less (almost no effect)),5 (Herbicidal rate of 90% or more (almost completely withered)),3 (Herbicidal rate of 40% or more and less than 70%),4 (Herbicidal rate of 70% or more and less than 90%),5 (Herbicidal rate of 90% or more (almost completely withered)),5 (Herbicidal rate of 90% or more (almost completely withered)),3 (Herbicidal rate of 40% or more and less than 70%),4 (Herbicidal rate of 70% or more and less than 90%),0 (Herbicidal rate of 5% or less (almost no effect)),
C#CC(C)Oc1ccc(-c2sc3ccccc3c2-c2c(O)c(C)nn(C)c2=O)cc1 (racemic) [1-217],5 (Herbicidal rate of 90% or more (almost completely withered)),0 (Herbicidal rate of 5% or less (almost no effect)),0 (Herbicidal rate of 5% or less (almost no effect)),5 (Herbicidal rate of 90% or more (almost completely withered)),2 (Herbicidal rate of 20% or more and less than 40%),0 (Herbicidal rate of 5% or less (almost no effect)),4 (Herbicidal rate of 70% or more and less than 90%),0 (Herbicidal rate of 5% or less (almost no effect)),3 (Herbicidal rate of 40% or more and less than 70%),5 (Herbicidal rate of 90% or more (almost completely withered)),5 (Herbicidal rate of 90% or more (almost completely withered)),0 (Herbicidal rate of 5% or less (almost no effect)),5 (Herbicidal rate of 90% or more (almost completely withered)),0 (Herbicidal rate of 5% or less (almost no effect)),
C#CC(C)Oc1ccc(-c2sc3ccccc3c2-c2c(OCOCCOC)c(C)nn(C)c2=O)cc1 (racemic) [1-218],,,,,,,,,,,,,,,"Herbicidal effect on B: Japanese bulrush (grade 0-5) (Japanese bulrush; 100 g/ha applied herbicide): 3 (Herbicidal rate of 40% or more and less than 70%); J: blackgrass, herbicidal effect rating (blackgrass; AAH 187 g/ha): 0 (Herbicidal rate of 5% or less (almost no effect)); L: windgrass, herbicidal effect rating (windgrass; AAH 187 g/ha): 0 (Herbicidal rate of 5% or less (almost no effect)); effect on Italian ryegrass (K) (Italian ryegrass [1]; 187 g/ha): 2 (Herbicidal rate of 20% or more and less than 40%); O: lambsquarters, herbicidal effect rating (lambsquarters [2]; AAH 187 g/ha): 3 (Herbicidal rate of 40% or more and less than 70%); F: southern crabgrass, herbicidal effect rating (southern crabgrass; AAH 187 g/ha): 0 (Herbicidal rate of 5% or less (almost no effect)); effect on green foxtail (G) (green foxtail; 187 g/ha): 5 (Herbicidal rate of 90% or more (almost completely withered)); herbicidal effect rating, A: late watergrass (late watergrass; AAH 100 g/ha): 3 (Herbicidal rate of 40% or more and less than 70%); herbicidal effect rating, C: oval-leafed pondweed (oval-leafed pondweed; AAH 100 g/ha): 4 (Herbicidal rate of 70% or more and less than 90%); effect on lambsquarters (O) (lambsquarters [3]; 187 g/ha): 4 (Herbicidal rate of 70% or more and less than 90%); effect on velvetleaf (M) (velvetleaf; 187 g/ha): 4 (Herbicidal rate of 70% or more and less than 90%); K: Italian ryegrass, herbicidal effect rating (Italian ryegrass [4]; AAH 187 g/ha): 0 (Herbicidal rate of 5% or less (almost no effect)); herbicidal effect on D (Chinese sprangletop), rating 0-5 (Chinese sprangletop; 100 g/ha): 4 (Herbicidal rate of 70% or more and less than 90%); I: wild oat, herbicidal effect rating (wild oat; AAH 187 g/ha): 0 (Herbicidal rate of 5% or less (almost no effect))"
